From US20120034613A1, “Apparatus and Method for Testing Relationships Between Gene Expression and Physical Appearance of Skin” (NSE Products, Inc., priority 2010, published 2012)

Tested on: EpidermFT™ Skin Model (EFT-400) full thickness skin cultures
Assay: Affymetrix GeneChip HG U133 Plus 2.0 microarray global gene expression, agent-exposed vs untreated skin cultures
Type: cell-based, human
Conditions: for Direction / Fold change: Salicin 0.5%
[1] = Salicin 0.5% vs Untreated Control, 24 hr

OCc1ccccc1O[C@@H]1O[C@H](CO)[C@@H](O)[C@H](O)[C@H]1O [Salicin, 2-(Hydroxymethyl)phenyl β-D-glucospyranoside]
down: Direction ABCD3 (202850_at) [1] | Direction ABCG4 (207593_at) [1] | Direction ACACA (212186_at) [1] | Direction ACAD9 (224160_s_at) [1] | Direction ACOX3 (204241_at) [1] | Direction ADAMTSL4 (226071_at) [1] | Direction ADARB1 (203865_s_at) [1] | Direction AHNAK (211986_at) [1] | Direction AIF1L (223075_s_at) [1] | Direction AK1 (202587_s_at) [1] | Direction AK3L1 /// AK3L2 (204347_at) [1] | Direction ALDH5A1 (203609_s_at) [1] | Direction ALOX12 (207206_s_at) [1] | Direction AMACR (209426_s_at) [1] | Direction AMOTL2 (203002_at) [1] | Direction ANK3 (207950_s_at) [1] | Direction APPL2 (218218_at) [1] | Direction AQP3 (203747_at) [1] | Direction ARHGAP27 (225618_at) [1] | Direction ARL17 /// ARL17P1 (1555964_at) [1] | Direction ARPC1A (200950_at) [1] | Direction ASAP3 (222236_s_at) [1] | Direction ATP2B4 (212136_at) [1] | Direction ATXN3 (205416_s_at) [1] | Direction BAIAP2 (205293_x_at) [1] | Direction BCL11A (1559078_at) [1] | Direction BCL11B (222895_s_at) [1] | Direction BICD2 (1553021_s_at) [1] | Direction BLCAP (201032_at) [1] | Direction C1orf46 (216718_at) [1] | Direction C1orf71 (225551_at) [1] | Direction C1orf97 (224443_at) [1] | Direction C2orf7 (223312_at) [1] | Direction C4orf3 (224605_at) [1] | Direction C6orf105 (215100_at) [1] | Direction C12orf29 (228378_at) [1] | Direction C15orf52 (227272_at) [1] | Direction C17orf67 (236863_at) [1] | Direction C20orf177 (225313_at) [1] | Direction CALM1 /// CALM2 /// CALM3 (200653_s_at) [1] | Direction CALM1 /// CALM2 /// CALM3 (209563_x_at) [1] | Direction CAT (211922_s_at) [1] | Direction CENPT (218148_at) [1] | Direction CEP76 (52285_f_at) [1] | Direction CERK (218421_at) [1] | Direction CKB (200884_at) [1] | Direction CLCN5 (232127_at) [1] | Direction CLDN7 (202790_at) [1] | Direction CLIP1 (1558924_s_at) [1] | Direction CLN8 (229958_at) [1] | Direction CNDP2 (217752_s_at) [1] | Direction CNTN1 (211203_s_at) [1] | Direction CSNK2A2 (203575_at) [1] | Direction CTAGE4 (215549_x_at) [1] | Direction CXCL12 (203666_at) [1] | Direction CYB5R1 (202263_at) [1] | Direction CYCS (244546_at) [1] | Direction DBI (211070_x_at) [1] | Direction DDR1 (1007_s_at) [1] | Direction DDX50 (1568815_a_at) [1] | Direction DHRS4 /// DHRS4L2 (218021_at) [1] | Direction DMD (203881_s_at) [1] | Direction DOPEY2 (205248_at) [1] | Direction ELOVL3 (234513_at) [1] | Direction EPCAM (201839_s_at) [1] | Direction EPHB4 (202894_at) [1] | Direction EPHB6 (204718_at) [1] | Direction ERI2 (213365_at) [1] | Direction F2RL1 (206429_at) [1] | Direction FAM33A (225684_at) [1] | Direction FAR1 (224865_at) [1] | Direction FBXO3 (229955_at) [1] | Direction FBXO3 (238686_at) [1] | Direction FBXO9 (212991_at) [1] | Direction FBXO9 (1559094_at) [1] | Direction FIGNL1 (222843_at) [1] | Direction FKBP1B (206857_s_at) [1] | Direction FKBPL (219187_at) [1] | Direction FRAG1 (41858_at) [1] | Direction FUCA1 (202838_at) [1] | Direction FUT2 (210608_s_at) [1] | Direction GAB1 (225998_at) [1] | Direction GAS7 (202192_s_at) [1] | Direction GDAP1 (226269_at) [1] | Direction GNG4 (205184_at) [1] | Direction GPR1 (214605_x_at) [1] | Direction GPR137B (204137_at) [1] | Direction GSN (200696_s_at) [1] | Direction HES5 (239230_at) [1] | Direction HIGD1A (217845_x_at) [1] | Direction HN1 (222396_at) [1] | Direction HN1L (212115_at) [1] | Direction HSDL2 (209512_at) [1] | Direction ID2 (201565_s_at) [1] | Direction IDH2 (210045_at) [1] | Direction IL22RA1 (220056_at) [1] | Direction INPP5D (203332_s_at) [1] | Direction ITGA3 (201474_s_at) [1] | Direction JAG1 (209099_x_at) [1] | Direction JAG1 (216268_s_at) [1] | Direction JMJD7 /// JMJD7-PLA2G4B /// PLA2G4B (222256_s_at) [1] | Direction KCNK7 (224055_x_at) [1] | Direction KCTD15 (222668_at) [1] | Direction KIF1B (209234_at) [1] | Direction KIF1B (225878_at) [1] | Direction KLK1 (216699_s_at) [1] | Direction KRT5 (201820_at) [1] | Direction KRT6A (209125_at) [1] | Direction KRT10 (207023_x_at) [1] | Direction KRTCAP3 (235148_at) [1] | Direction LMNA (212089_at) [1] | Direction LMNA (1554600_s_at) [1] | Direction LMNB1 (203276_at) [1] | Direction LOC284837 (1563088_a_at) [1] | Direction LOC286440 (209733_at) [1] | Direction LOC400027 (226413_at) [1] | Direction LOC401233 (1558882_at) [1] | Direction LOC648245 (227739_at) [1] | Direction LOC652968 (233528_s_at) [1] | Direction LOC727820 (227384_s_at) [1] | Direction LOC100128443 /// MAST4 (210958_s_at) [1] | Direction LOC100128822 (235174_s_at) [1] | Direction LOC100130837 (242255_at) [1] | Direction LOC100131262 (1558152_at) [1] | Direction LOC100131851 /// LOC100134497 /// LOC401002 /// LOC646674 /// SSBP3 (222482_at) [1] | Direction LOC100133772 /// SLC16A5 (206600_s_at) [1] | Direction LOC100134937 (229685_at) [1] | Direction LPHN1 (47560_at) [1] | Direction LY75 (205668_at) [1] | Direction LYSMD4 (228954_at) [1] | Direction MAFB (218559_s_at) [1] | Direction MAPRE2 (202501_at) [1] | Direction MEGF9 (212831_at) [1] | Direction MFAP5 (213764_s_at) [1] | Direction MIB2 (226644_at) [1] | Direction MPP7 (238451_at) [1] | Direction MTHFR (226929_at) [1] | Direction MTMR1 (214975_s_at) [1] | Direction MUC1 (213693_s_at) [1] | Direction MYO18A /// TIAF1 (202039_at) [1] | Direction NBEAL2 (212443_at) [1] | Direction NCF2 (209949_at) [1] | Direction NCRNA00086 (238697_at) [1] | Direction PAIP1 (208051_s_at) [1] | Direction PAIP2B (221868_at) [1] | Direction PAWR (204005_s_at) [1] | Direction PAWR (229515_at) [1] | Direction PDIK1L (227255_at) [1] | Direction PERP (217744_s_at) [1] | Direction PIGW (1558292_s_at) [1] | Direction PLEKHA2 (225136_at) [1] | Direction PLS3 (201215_at) [1] | Direction PNMA2 (209598_at) [1] | Direction POLE2 (205909_at) [1] | Direction POLH (231115_at) [1] | Direction POLR3B (219459_at) [1] | Direction POU3F1 (208345_s_at) [1] | Direction PPAP2C (209529_at) [1] | Direction PPP1CB (201409_s_at) [1] | Direction PPP2CA (208652_at) [1] | Direction PRDX2 (39729_at) [1] | Direction PRKX (204061_at) [1] | Direction PTCH1 (209815_at) [1] | Direction PTGFR (1555097_a_at) [1] | Direction PVRL1 (225211_at) [1] | Direction RAB7B (1553982_a_at) [1] | Direction RAPGEFL1 (218657_at) [1] | Direction RHOV (241990_at) [1] | Direction RICS (203431_s_at) [1] | Direction RNF170 (226104_at) [1] | Direction RORA (235567_at) [1] | Direction RPS6KA5 (204633_s_at) [1] | Direction RPS6KB2 (203777_s_at) [1] | Direction SCRN3 (222849_s_at) [1] | Direction SDCCAG8 (243963_at) [1] | Direction SEMA4D (203528_at) [1] | Direction SERPINB1 (213572_s_at) [1] | Direction SETBP1 (227478_at) [1] | Direction SHROOM2 (204967_at) [1] | Direction SLC5A3 (212944_at) [1] | Direction SLC24A3 (219090_at) [1] | Direction SLC45A4 (225598_at) [1] | Direction SLCO3A1 (219229_at) [1] | Direction SMAP2 (225282_at) [1] | Direction SMCR7 (235896_s_at) [1] | Direction SNX21 (1553960_at) [1] | Direction SNX24 (218705_s_at) [1] | Direction SORD (201563_at) [1] | Direction ST8SIA4 (230836_at) [1] | Direction STK24 (208854_s_at) [1] | Direction SYNGR2 (201079_at) [1] | Direction TANC1 (225308_s_at) [1] | Direction TCEA3 (226388_at) [1] | Direction TCHP (223455_at) [1] | Direction TGOLN2 (1554608_at) [1] | Direction THBD (203888_at) [1] | Direction TIMM22 (219184_x_at) [1] | Direction TMC5 (222904_s_at) [1] | Direction TMEM19 (226860_at) [1] | Direction TMEM45A (219410_at) [1] | Direction TMEM50B (225182_at) [1] | Direction TMEM80 (65630_at) [1] | Direction TP53I3 (210609_s_at) [1] | Direction TRAF3IP2 (202987_at) [1] | Direction TRIM2 (202342_s_at) [1] | Direction TTC30B (1554588_a_at) [1] | Direction VPS4B (218171_at) [1] | Direction WNK1 (39313_at) [1] | Direction WNK1 (211993_at) [1] | Direction ZBTB1 (1557036_at) [1] | Direction ZDHHC21 (241946_at) [1] | Direction ZFYVE21 (219929_s_at) [1] | Direction ZHX1 (223213_s_at) [1] | Direction ZHX1 (223214_s_at) [1] | Direction ZNF85 (1554445_at) [1] | Direction ZNF561 (235200_at) [1] | Direction ZNF589 (219968_at) [1] | Direction ZNF823 (229732_at) [1]
2.141: Fold change (1554602_at RBM8A, 24 hr)
2.098: Fold change (1559477_s_at MEIS1, 24 hr)
2.151: Fold change (1561042_at ITGB1, 24 hr)
up: Direction (1554602_at RBM8A, 24 hr) | Direction (1555270_a_at WFS1, 24 hr) | Direction (1559477_s_at MEIS1, 24 hr) | Direction (1561042_at ITGB1, 24 hr) | Direction ABHD2 (205566_at) (Salicin 0.5% vs Untreated Control, 24 hr treatment)
2.096: Fold change (1555270_a_at WFS1, 24 hr)
